# B1: zebrafish HBNF: zebrafish heparin-binding neurotrophic factor (SEQ ID NO: 1) expressed from pcDNA-HBNF-HA (protein)
# chain: MQQQWVCVALLALLTVTATLADGGKTEKQGKKERKSDCGEWQWSVCVANEGDCGLGIREGTRSGNDCKQTIKTQRCKIPCNWKKQFGGECKYDFQAWGECDSTTGMKTRTGVLKRALMDANCPNTVSATKPCGKPKTKMQDSQKPKRDGKKKERNPTD
# modifications: HA tag; Danio rerio
# B2: zebrafish GDNF: zebrafish glial-derived neurotrophic factor expressed in glia cells from pGFAP-GDNF-HA (protein, UniProt Q98TU0 90-235, looked up)
# Glial cell line-derived …: SSDVEPQMKRDRVRQKAAANTEKSGGRGRGERKRSRGRARSRDDRVKGQGRGCLLKEIHLNVTDLDLGYRTKEELIFRYCSGPCHDAETNYDKILNNLTHNKKLDKDTPSRTCCRPIAFDDDISFLDDSLEYHTLKKHSAKKCACV
# modifications: HA tag
# notes: zebrafish glial-derived neurotrophic factor expressed in glia cells from pGFAP-GDNF-HA
# B3: zebrafish NGF: zebrafish nerve growth factor expressed from pCMV-NGF-HA (protein, UniProt Q6YBR5 77-194, looked up)
# Nerve growth factor: KAGPPQHRGVYSVCESISHWEGNKTKATDITGNEVTVLPDVIINNSKKKQYFFETTCSSGRTGGSGCLGIDARHWNSYCTNSHTFVRALTSFKNLVAWRLIRINVACVCVLSRKSWRA
# modifications: HA tag
# notes: zebrafish nerve growth factor expressed from pCMV-NGF-HA
# B4: recombinant GDNF: recombinant glial-derived neurotrophic factor (Hiwasa et al., 1997) (protein, UniProt P39905 78-211, looked up)
# Glial cell line-derived …: SPDKQMAVLPRRERNRQAAAANPENSRGKGRRGQRGKNRGCVLTAIHLNVTDLGLGYETKEELIFRYCSGSCDAAETTYDKILKNLSRNRRLVSDKVGQACCRPIAFDDDLSFLDDNLVYHILRKHSAKRCGCI
# B5: GDNF: glial-derived neurotrophic factor infused directly in putamen in a clinical trial (protein, UniProt P39905 78-211, looked up)
# Glial cell line-derived …: SPDKQMAVLPRRERNRQAAAANPENSRGKGRRGQRGKNRGCVLTAIHLNVTDLGLGYETKEELIFRYCSGSCDAAETTYDKILKNLSRNRRLVSDKVGQACCRPIAFDDDLSFLDDNLVYHILRKHSAKRCGCI
# What was measured:
# PC12D cells = PC12D cells (Li et al., 2004); cited from earlier work
# [1] = tested on: NGF-induced neurite outgrowth; conditions: Feng et al., 2004; cited from earlier work
# [2] = tested on: fluorescent blood vessels; conditions: transgenic fluorescent embryos (Parng et al., 2002); cited from earlier work
# [3] = tested on: HBNF-induced neurite outgrowth; test: modified in vivo neurite outgrowth assay in zebrafish embryos, inhibition by injected heparin; conditions: heparin injected into zebrafish embryo at two- or four-cell stage; data not shown
# Source text: As mentioned above, we modified the in vivo neurite outgrowth assay in zebrafish embryos to investigate the inhibitory effect of heparin or heparan sulfate on HBNF-induced neurite outgrowth by further injection of different dosage of heparin or heparan sulfate into zebrafish embryo at two- or four-cell stage. […] Therefore, the modified assay system also can be used to compare the inhibitory or enhancing effect of HBNF/PTN-induced neurite outgrowth in vivo by heparin and its modified forms, N-syndecan-derived saccharides, and other glycosaminoglycans.
# cultured neurons = cultured neurons / neuronal cells (Raulo et al., 1994; Kinnunen et al., 1996; Rauvala et al., 1997); cited from earlier work
# PC12 cells = test: neurite outgrowth in PC12 cells transfected with pcDNA-HBNF-HA; type: cell-based, rat; conditions: transfected HBNF cDNA under CMV promoter, without NGF stimulation, 72 h posttransfection
# [4] = tested on: GFP-labeled neurons in zebrafish embryos; test: in vivo neurite outgrowth promotion assay, expression construct coinjected with pHuC-GFP into zebrafish embryos; set-up: species or system Zebrafish (Danio rerio); conditions: expression construct coinjected with pHuC-GFP at one-cell stage; observed at 48 or 72 hpf
# Procedure: The expression construct pcDNA-HBNF-HA and pHuC-GFP (panels 2, 5-7) were coinjected into zebrafish embryos at 1-cell stage. Similar injection of pHuC-GFP alone (panel 1) was used as control. Zebrafish embryos at 72 h postfertilization with GFP fluorescence were selected for image analysis. Embryos are shown as lateral view with anterior to the left. Experiments were repeated at least three times and at least 100 fertilized eggs were used for injection of expression constructs at each time. Four representative patterns with significant enhancement of neurite outgrowth (panels 2, 5-7) were shown. Images of bright field and fluorescence were merged and shown in panels 1, 2, and 5-7, while fluorescence images only in panels 3, 4, 8-10. Higher magnification of two regions marked with yellow boxes in panel 2 was shown in panel 3 and 4, respectively. N, notochord; DF, dorsal fin; VF, ventral fin. Scale bars represent 100 μm.
# The expression construct pcDNA-NGF-HA and pHuC-GFP were coinjected into zebrafish embryos at 1-cell stage. Similar injection of pHuC-GFP alone was used as control. Zebrafish embryos at 72 hpf with GFP fluorescence were selected for image analysis. Embryos are shown as lateral view with anterior to the left. Images of bright field and fluorescence were merged and shown in panel 1, while fluorescence images only in panel 2. Higher magnification of the head region and tail region with significant neurite outgrowth in panel 2 was shown in panels 3 and 4, respectively.
# The expression construct pGFAP-GDNF-HA and pHuC-GFP were coinjected into zebrafish embryos at 1-cell stage. Similar injection of pHuC-GFP alone was used as control. Zebrafish embryos at 48 hpf with GFP fluorescence were selected for image analysis. […] Images of bright field and fluorescence were merged and shown in panel 1, while fluorescence images only in panel 2. […]
# Zebrafish (Danio rerio) were maintained at 28° C. on a 14 h-light/10 h-dark cycle. Embryos were incubated at 28° C. and different developmental stages were determined according to the description in Zebrafish Book (Westerfield, 1995). […]
# [5] = tested on: neuro2A neuroblastoma cells; conditions: Hiwasa et al., 1997; cited from earlier work
# [6] = infused directly in putamen (Gill et al., 2003); cited from earlier work
molecule,measurement,setting,value
"CC(=O)O[C@@H]1[C@@H](O)[C@H](C)O[C@@H](OC[C@H]2O[C@@H](Oc3cc(O)c4c(=O)cc(-c5ccc(O)cc5)oc4c3)[C@H](O)[C@@H](O)[C@@H]2O)[C@@H]1O [Compound 2, apigenin 7-O-alpha-L-3-O-acetylrhamnopyranosyl-(1→6)-beta-D-glucopyranoside]",enhancing activity of nerve growth factor-mediated neurite outgrowth,PC12D cells,enhancing activity
"CC(=O)O[C@@H]1[C@@H](O)[C@H](C)O[C@@H](OC[C@H]2O[C@@H](Oc3cc(O)c4c(=O)cc(-c5ccc(O)cc5)oc4c3)[C@H](O)[C@@H](O)[C@@H]2O)[C@@H]1OC(C)=O [Compound 3, apigenin 7-O-alpha-L-2,3-di-O-acetylrhamnopyranosyl-(1→6)-beta-D-glucopyranoside]",enhancing activity of nerve growth factor-mediated neurite outgrowth,PC12D cells,enhancing activity
"COC(=O)[C@]1(O)C[C@H]2O[C@]1(C)n1c3ccc(O)cc3c3c4c(c5c6ccccc6n2c5c31)C(=O)NC4=O [Indocarbazostatin C, Indocarbazostatins C]",inhibition of NGF-induced neurite outgrowth,[1],inhibitors of NGF-induced neurite outgrowth
COC(=O)[C@]1(O)C[C@H]2O[C@]1(C)n1c3ccc(O)c(N)c3c3c4c(c5c6ccccc6n2c5c31)C(=O)NC4=O [Indocarbazostatin D],inhibition of NGF-induced neurite outgrowth,[1],inhibitors of NGF-induced neurite outgrowth
Cc1[nH]c(/C=C2\C(=O)Nc3ccccc32)c(C)c1CCC(=O)O [SU-6668],inhibition of angiogenesis,[2],inhibit angiogenesis
heparin,inhibitory effect on HBNF-induced neurite outgrowth,[3],inhibit HBNF-induced neurite outgrowth
low molecular weight heparin,inhibition of HBNF/PTN-induced neurite outgrowth,cultured neurons,more potent inhibition
B1,neurite outgrowth in PC12 cells,PC12 cells,induce significant neurite outgrowth
same,enhancement of neurite outgrowth in zebrafish embryos,[4],enhance extensive neurite outgrowth
B2,enhancement of neurite outgrowth in zebrafish embryos,[4],induce extensive neurite outgrowth
B3,enhancement of neurite outgrowth in zebrafish embryos,[4],induce extensive neurite outgrowth
B4,neurite outgrowth of neuro2A neuroblastoma cells,[5],induce neurite outgrowth
B5,side-effects,[6],does not have significant side-effects
same,treatment effect in Parkinson disease,[6],effective treatment for Parkinson disease
